# Data reported in ChEMBL document CHEMBL5335792, “Chemical exploration of TGR5 functional hot-spots: Synthesis and structure-activity relationships of C7- and C23-Substituted cholic acid derivatives” (Eur J Med Chem, 2023).
# Assay: physchem
# Conditions: 0.15 M sodium salt
smiles,measurement,value
C[C@H](CCC(=O)O)[C@H]1CC[C@H]2[C@@H]3[C@H](O)C[C@@H]4C[C@H](O)CC[C@]4(C)[C@H]3C[C@H](O)[C@]12C [CHOLIC ACID],solubility,12 mM
